Reference: ChEMBL document CHEMBL1949630, “Discovery of benzodihydroisofurans as novel, potent, bioavailable and brain-penetrant prolylcarboxypeptidase inhibitors” (Bioorg Med Chem Lett, 2012)

Legend:
[1] = Oral bioavailability in C57BL/6 mouse at 1 mg/kg by LC/MS/MS analysis; assay type: ADME, organism-based; settings: in vivo
[2] = Clearance in C57BL/6 mouse at 0.5 mg/kg, iv and 1 mg/kg, po by LC/MS/MS analysis; assay type: ADME, organism-based; settings: in vivo
[3] = Volume of distribution at steady state in C57BL/6 mouse at 0.5 mg/kg, iv and 1 mg/kg, po by LC/MS/MS analysis; assay type: ADME, organism-based; settings: in vivo, read-out: Vdss
[4] = biological target: T1, Lysosomal Pro-X carboxypeptidase (Mus musculus, UniProt Q7TMR0); experiment: Inhibition of mouse PrCP
T1 sequence (Q7TMR0 whole entry): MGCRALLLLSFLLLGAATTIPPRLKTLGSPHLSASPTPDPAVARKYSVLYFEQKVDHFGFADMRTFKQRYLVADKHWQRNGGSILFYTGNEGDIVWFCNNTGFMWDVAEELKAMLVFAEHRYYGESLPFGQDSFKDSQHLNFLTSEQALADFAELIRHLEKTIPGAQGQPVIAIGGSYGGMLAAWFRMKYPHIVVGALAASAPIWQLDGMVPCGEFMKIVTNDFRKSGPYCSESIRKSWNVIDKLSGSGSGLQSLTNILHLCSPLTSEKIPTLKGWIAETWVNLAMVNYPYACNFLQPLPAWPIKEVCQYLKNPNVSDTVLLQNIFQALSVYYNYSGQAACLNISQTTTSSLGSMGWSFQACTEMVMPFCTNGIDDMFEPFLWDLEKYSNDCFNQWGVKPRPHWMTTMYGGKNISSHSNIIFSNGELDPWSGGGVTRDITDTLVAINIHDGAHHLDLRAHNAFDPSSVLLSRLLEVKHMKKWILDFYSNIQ

Mus musculus [5] = experiment: Dose normalized AUC in C57BL/6 mouse at 1 mg/kg by LC/MS/MS analysis; assay type: ADME, organism-based; design: dose 1 mg/kg; settings: in vivo
[6] = Half life in C57BL/6 mouse at 0.5 mg/kg, iv and 1 mg/kg, po by LC/MS/MS analysis; assay type: ADME, organism-based; settings: in vivo
[7] = biological target: T1, Lysosomal Pro-X carboxypeptidase; experiment: Inhibition of PrCP in mouse plasma assessed as angiotensin 3 cleavage by whole serum shift assay
[8] = Fraction unbound in mouse plasma; assay type: ADME, cell-free
[9] = Fraction unbound in human plasma; assay type: ADME, cell-free
[10] = Half life in C57BL/6 mouse at 1 mg/kg, iv and 2 mg/kg, po by LC/MS/MS analysis; assay type: ADME, organism-based; settings: in vivo
Mus musculus [11] = experiment: Dose normalized AUC in C57BL/6 mouse at 2 mg/kg by LC/MS/MS analysis; assay type: ADME, organism-based; design: dose 2 mg/kg; settings: in vivo
[12] = Volume of distribution at steady state in C57BL/6 mouse at 1 mg/kg, iv and 2 mg/kg, po by LC/MS/MS analysis; assay type: ADME, organism-based; settings: in vivo, read-out: Vdss
[13] = Oral bioavailability in C57BL/6 mouse at 2 mg/kg by LC/MS/MS analysis; assay type: ADME, organism-based; settings: in vivo
[14] = Clearance in C57BL/6 mouse at 1 mg/kg, iv and 2 mg/kg, po by LC/MS/MS analysis; assay type: ADME, organism-based; settings: in vivo

Row | Compound | bioavailability [1] | clearance [2] | Vd [3] | IC50 [4] | AUC/dose (Mus musculus [5]) | half-life [6] | IC50 [7] | fraction unbound [8] | fraction unbound [9] | half-life [10] | AUC/dose (Mus musculus [11]) | Vd [12] | bioavailability [13] | clearance [14]
1 | Clc1cc(Cl)cc(C2OC3(CCN(Cc4ccc(N5CCCC5)cn4)CC3)c3ccccc32)c1 (racemic) | 23% | 7.6 mL/min/kg | 4.7 L/kg | 17 nM | 1.22 µM·kg·h/mg | 8.5 h | – | – | – | – | – | – | – | –
2 | Clc1cc(Cl)cc(C2OC3(CCN(Cc4cc5ccccc5o4)CC3)c3ccccc32)c1 (racemic) | – | – | – | 2.5 nM | – | – | > 1000 nM | – | – | – | – | – | – | –
3 | FC(F)(F)Oc1ccc(CN2CCC3(CC2)OC(c2cc(Cl)cc(Cl)c2)c2cnccc23)cc1 (racemic) | – | – | – | 5.2 nM | – | – | 427 nM | – | – | – | – | – | – | –
4 | CC(C)(c1ccc(OC(F)(F)F)cc1)N1CCC2(CC1)OC(c1cc(Cl)ccn1)c1cccnc12 (racemic) | 41% | – | – | 0.39 nM | 0.41 µM·kg·h/mg | > 8 h | 351 nM | – | – | – | – | – | – | –
5 | FC(F)(F)Oc1ccc(CN2CCC3(CC2)OC(c2cc(Cl)cc(Cl)c2)c2ccncc23)cc1 (racemic) | 29% | 35 mL/min/kg | 15 L/kg | 1.3 nM | 0.28 µM·kg·h/mg | 6.1 h | 380 nM | – | – | – | – | – | – | –
6 | CC(c1ccc(F)cn1)N1CCC2(CC1)OC(c1cc(Cl)cc(Cl)c1)c1ccccc12 (racemic) | 22% | 31 mL/min/kg | 14 L/kg | 0.31 nM | 0.27 µM·kg·h/mg | 5.9 h | 90 nM | – | – | – | – | – | – | –
7 | FC(F)(F)Oc1ccc(CN2CCC3(CC2)OC(c2ccc(Cl)cn2)c2ccccc23)cc1 (racemic) | 35% | 30 mL/min/kg | 14 L/kg | 25 nM | 0.46 µM·kg·h/mg | 6.5 h | – | – | – | – | – | – | – | –
8 | FC(F)(F)c1ccc(CN2CCC3(CC2)OC(c2cc(Cl)cc(Cl)c2)c2ccccc23)nc1 (racemic) | 16% | 51 mL/min/kg | 11 L/kg | 0.71 nM | 0.11 µM·kg·h/mg | 4.1 h | 144 nM | – | – | – | – | – | – | –
9 | FC(F)(F)Oc1ccc(CN2CCC3(CC2)OC(c2cc(Cl)cc(Cl)c2)c2cccnc23)cc1 (centres undefined) | 22% | 28 mL/min/kg | 8.2 L/kg | 1.4 nM | 0.26 µM·kg·h/mg | 4 h | – | – | – | – | – | – | – | –
10 | CC(C)(O)C(c1ccccc1)N1CCC2(CC1)OC(c1cc(Cl)cc(Cl)c1)c1cccnc12 (racemic) | 16% | 38 mL/min/kg | 7.3 L/kg | 5.2 nM | 0.11 µM·kg·h/mg | 3.4 h | – | – | – | – | – | – | – | –
11 | O=S(=O)(c1ccc(OC(F)(F)F)cc1)N1CCC2(CC1)OC(c1cc(Cl)cc(Cl)c1)c1cccnc12 (racemic) | 36% | 33 mL/min/kg | 9.5 L/kg | 1.8 nM | 0.33 µM·kg·h/mg | 4.8 h | 712 nM | < 0.0006 | < 0.0006 | – | – | – | – | –
12 | CC(c1ccc(F)cn1)N1CCC2(CC1)OC(c1cc(Cl)ccn1)c1cccnc12 (racemic) | 2.6% | 127 mL/min/kg | 17 L/kg | 10.6 nM | 0.008 µM·kg·h/mg | 2.1 h | 19 nM | – | – | – | – | – | – | –
13 | FC(F)(F)Oc1ccc(CN2CCC3(CC2)OC(c2cc(Cl)ccn2)c2cccnc23)cc1 (racemic) | – | – | – | 5.8 nM | – | – | – | – | – | 5 h | 0.23 µM·kg·h/mg | 28 L/kg | 47% | 74 mL/min/kg
14 | O=S(=O)(c1ccc(C(F)(F)F)cn1)N1CCC2(CC1)OC(c1cc(Cl)cc[n+]1[O-])c1ccccc12 (racemic) | 23% | 87 mL/min/kg | 12 L/kg | 0.11 nM | 0.1 µM·kg·h/mg | 2.1 h | – | 0.025 | 0.05 | – | – | – | – | –
15 | FC(F)(F)Oc1ccc(CN2CCC3(CC2)OC(c2cc(Cl)cc(Cl)c2)c2ccccc23)cc1 (centres undefined) | – | – | – | 1 nM | – | – | > 1000 nM | – | – | 7 h | 2.16 µM·kg·h/mg | 4.4 L/kg | 53% | 8.1 mL/min/kg
16 | OCC(c1ccccc1)N1CCC2(CC1)OC(c1cc(Cl)cc(Cl)c1)c1cccnc12 (racemic) | 17% | 126 mL/min/kg | 20 L/kg | 110 nM | 0.05 µM·kg·h/mg | 2.3 h | – | – | – | – | – | – | – | –
17 | [O-][n+]1ccc(Cl)cc1C1OC2(CCN(Cc3ccc(OC(F)(F)F)cc3)CC2)c2ccccc21 (single isomer, unassigned) | – | – | – | 0.38 nM | – | – | – | 0.007 | 0.006 | 5.6 h | 0.43 µM·kg·h/mg | 27 L/kg | 72% | 57 mL/min/kg
18 | Fc1ccc(CN2CCC3(CC2)OC(c2cc(Cl)cc(Cl)c2)c2ccccc23)nc1 (centres undefined) | 22% | 28 mL/min/kg | 16 L/kg | 2.5 nM | 1.36 µM·kg·h/mg | 7 h | – | – | – | – | – | – | – | –
19 | FC(F)(F)Oc1ccc(CN2CCC3(CC2)OC(c2ccccn2)c2ccccc23)cc1 (racemic) | 25% | 70 mL/min/kg | 26 L/kg | 20 nM | 0.14 µM·kg·h/mg | 5 h | – | – | – | – | – | – | – | –
20 | CC(c1ccc(F)cn1)N1CCC2(CC1)OC(c1cc(Cl)ccn1)c1ccccc12 (racemic) | 7.8% | 96 mL/min/kg | 13 L/kg | – | 0.032 µM·kg·h/mg | 1.7 h | – | – | – | – | – | – | – | –
21 | CC(c1ccc(F)cn1)N1CCC2(CC1)OC(c1cc(Cl)cc(Cl)c1)c1cccnc12 (centres undefined) | 5.4% | 69 mL/min/kg | 19 L/kg | 1.1 nM | 0.028 µM·kg·h/mg | 4 h | 14 nM | – | – | – | – | – | – | –
